Assay results as given in paper PMC6628362, “A New Strategy for Glioblastoma Treatment: In Vitro and In Vivo Preclinical Characterization of Si306, a Pyrazolo[3,4-d]Pyrimidine Dual Src/P-Glycoprotein Inhibitor” (Cancers, 2019).
Like-named read-outs stand apart in the source and are kept apart here.

How the values were obtained:
[1] = tested on: LN-229; assay: MTT cell growth inhibition, LN-229; format: cell-based, Human; details: LN-229, MTT, n = 3
[2] = tested on: Alpha-1-acid glycoprotein (AGP); assay: Binding fluorimetric assay, AGP; format: in vitro ADME; details: 10 µM AGP, fluorescence quenching
Description: In order to determine the binding affinity for Si306 and pro-Si306 to HSA (human serum albumin) and AGP (alpha-1-acid glycoprotein), the protein fluorescence has been monitored by spectroscopy. The quantitative analysis was performed using black 96 multiwell plates: in each well, a fixed concentration of HSA or AGP (10 µM in phosphate buffer 1 mM) was added with different amounts of the tested compound (0.1 µM to 500 µM). Plates were gently shacked and after 30 min at room temperature for equilibration, spectra were recorded from 300 to 400 nm, after excitation at 295 nm, by using a Perkin Elmer EnVision Multilabel Reader 2014 spectrofluorimeter. Finally, spectra were acquired with EnVision Manager ver.1.13 software (Walthman, MA, USA). The obtained non fluorescence quenching percentages were plotted against drug concentrations and the relative KD values were calculated using GraphPad software (version 6.0).

[3] = Brain and tissue distribution of Si306 in mice; format: in vivo, BALB/C mice; details: for Tmax / Kp / AUC(0-inf) / Cmax / half-life / AUC(0-t) / MRT inf: male, BALB/C, mouse; for Tmax / AUC(0-inf) / Cmax / half-life / AUC(0-t) / MRT inf: brain; for Kp: brain/plasma, read-out: AUC brain to plasma ratio; for AUC(0-t): read-out: AUC 0→24 h; for MRT inf: read-out: MRT 0→∞
From the text: Naive male BALB/C mice (weight 20 ± 2 g) were ordered from Charles River (Milan, Italy). All animals were pathogen free and approximately 4–6 weeks old when they arrived. The adaption period to the environment was not less than seven days. All the procedures used on animals in this study were approved by Institutional Animal Use and Care Committee at Università Cattolica del S. Cuore, Rome and Università degli Studi di Siena and authorized by the Italian Ministry of Health, according to Legislative Decree 116/92, which implemented the European Directive 86/609/EEC on laboratory animal protection in Italy. Methods for all the conducted experiments were performed in accordance with regulations, standards and guidelines of the Animal Use and Care Committee of Università Cattolica del S. Cuore, Rome and Università degli Studi di Siena.
Si306 was dissolved in a mixture of Tween80 (10% v/v), benzyl alcohol (1% v/v) and a 10 mM solution of citric acid. The compound was administered intravenously as a single dose of 25 mg/kg in 200 μL of volume. At several time points (0.08, 0.25, 0.5, 1, 2, 4, 8, 24 h), after drug administration, mice were treated i.p. with heparin (5000 U/kg) and sacrificed under CO2. Five animals were used for each time point. Blood, brain, liver and kidneys were collected for the following quantitative analysis. Approximately 500–600 μL of blood was collected from each animal and transferred to a tube containing 10 μL of heparin and mixed briefly.
For the oral PK studies, mice received a single dose of 50 mg/kg of Si306 (dissolved in the same vehicle used for i.v. studies) in 400 μL of final volume by gavage. At nine time-points (0.25, 0.5, 1, 1.5, 2, 3, 4, 8, 24 h) after administration, mice were sacrificed under CO2. Blood and organs were collected and analyzed by LC-MS. The pharmacokinetic parameters, including area under concentration-time curve (AUC), maximum plasma concentration (Cmax), half-time (t1/2), apparent volume of distribution (V), plasma clearance (CL) and mean residence time (MRT), were calculated by non-compartmental analysis using PKSolver software (ver. 1.0, Nanjing, China).
Blood samples were centrifuged at 5000 rpm for 20 min to separate the plasma fraction, which was subsequently collected in a test tube. Acetonitrile (1 mL, with Si34 as internal standard at the concentration of 5 μg/mL) was added to each sample to denature proteins. Samples were centrifuged at 5000 rpm for 20 min, and the supernatant was recovered, dried under vacuum, solubilized again in methanol (100 μL), and analyzed. Brain and the other organs were homogenized using a T10 basic ULTRA-TURRAX® homogenizer (Bioclass, Pistoia, Italy); in order to extract the compound from the tissue, acetonitrile internal standard solution was added, and the homogenate was centrifuged at 5000 rpm for 20 min. The supernatant was recovered, filtered and analyzed by LC-MS. The quantification of each compound was performed by reference to the appropriate calibration curve. Representative LC-MS chromatograms for Si306 and for Si34 are reported in Figure S2 and Figure S3 respectively.

[4] = Acute toxicity study in mice (single i.v. dose); format: in vivo, BALB/c mice
Description: Male BALB/c mice (20 ± 2) g, supplied by Harlan Italy S.r.l., San Pietro al Natisone, Udine, Italy, were acclimated at 25 °C and 55% of humidity under natural light/dark conditions for 1 week before the proposed experiments. Animal welfare was routinely checked by veterinarians of the Service for Animal Welfare and all efforts were made to minimize suffering.
The study design includes three groups of five mice each. All mice were injected with compound through the tail vein in a single systemic dose (0.05 mL per dose). The test compound was solubilized in PBS/25% DMSO. The first group was treated with dose levels of 50 mg/kg; the second received a high-dose level of 100 mg/kg, whereas the third was inoculated with the only vehicle as the control. All mice were monitored for survival and the presence of any drug-related adverse effect (local signs of inflammation, weight loss, diarrhea, and behavioral alterations) throughout the experimental period. Mice were sacrificed 4 days after treatment, and liver, kidney, and brain tissue specimens were aseptically removed, fixed in 4% formaldehyde solution, and processed for paraffin embedding. Histopathological changes in tissue specimens were evaluated in 10 randomly selected tissue sections from each organ for all the samples. Sections cut at 2 μm were stained with hematoxylin and eosin (H&E) and analyzed by a pathologist with an optical microscope (Leica, Wetzlar, Germany).

ClC(Cn1ncc2c(Nc3cccc(Br)c3)nc(SCCN3CCOCC3)nc21)c1ccccc1 (stereo not shown) [Si306]
IC50 ([1]; Homo sapiens, LN-229, 72 h): 8 µM
IC50 ([1]; 72 h): 8.01 ± 0.574 µM
BMAX [2]: 88.38 ± 1.8
Kd at 30 min ([2]; alpha-1-acid glycoprotein (10 µM) in phosphate buffer): 11.5 ± 1 µM
maximum concentration into the brain ([3]; i.v., 25 mg/kg): 2.94 µg/g
Tmax ([3]; iv, 25 mg/kg, i.v., 25 mg/kg, read-out: Tmax): 4.8 min
Tmax ([3]; iv, 25 mg/kg, i.v., 25 mg/kg, read-out: time of maximum concentration into the brain (converted)): 5 min
Tmax ([3]; po, 50 mg/kg, p.o., 50 mg/kg, read-out: Tmax): 30 min
Tmax ([3]; po, 50 mg/kg, p.o., 50 mg/kg, read-out: time of maximum concentration into the brain (converted)): 30 min
Kp ([3]; iv, 25 mg/kg): 0.095
Kp ([3]; oral route, 50 mg/kg): 1.19
AUC(0-inf) ([3]; iv, 25 mg/kg): 2150 ng·h/mL
Cmax ([3]; iv, 25 mg/kg): 2940 ng/g
half-life ([3]; iv, 25 mg/kg): 158 min
AUC(0-t) ([3]; iv, i.v., 25 mg/kg): 2140 ng·h/mL
MRT inf ([3]; iv, i.v., 25 mg/kg): 88.8 min
AUC(0-inf) ([3]; po, 50 mg/kg): 18000 ng·h/mL
Cmax ([3]; po, 50 mg/kg): 10600 ng/g
half-life ([3]; po, 50 mg/kg): 126 min
AUC(0-t) ([3]; po, p.o., 50 mg/kg): 18000 ng·h/mL
MRT inf ([3]; po, p.o., 50 mg/kg): 72 min
AUC brain/plasma, fold higher p.o. with respect to i.v. ([3]; p.o. 50 mg/kg vs i.v. 25 mg/kg): 12 fold
maximum concentration into the brain ([3]; p.o., 50 mg/kg): 10.65 µg/g
microscopic alterations in liver, kidney and central nervous system ([4]; 50 and 100 mg/kg i.v., 4 days after treatment, H&E): No microscopic alterations
treatment-related mortality ([4]; limit test dose 100 mg/kg, i.v., four days observation): did not produce treatment-related mortality
LD50 at 4 days ([4]; male, BALB/c, mouse, in vivo, iv, single dose, mice): > 100 mg/kg
behavior (apathy, hyperactivity, vomiting, diarrhea, morbidity) ([4]; up to 100 mg/kg i.v., four days observation): no significant changes occurred in the behavior
body weights ([4]; up to 100 mg/kg i.v., recorded daily): no significant changes
